Assays:
[1] = Total doxorubicin content, recovery and encapsulation efficiency of liposomal suspension (HPLC); type: physicochemical; settings: 50:1 lipid/drug
Protocol: All HPLC was performed using an Agilent 1260 Infinity system, equipped with a G13110B pump, 01329B autosampler, G1316A column compartment, and a G1315D diode-array detector. OpenLab CDS (EZChrom edition) software controlled all modules and was used for analysis and reporting of chromatography. A Phenomenex Luna C18 column (5μ, 150×4.6 mm; part #00G-4252-E0) was used for all analyses.
Chromatographic analysis of doxorubicin (DOX) was performed on the Agilent 1260 Infinity system using a C18 column (see above) with a column temperature of 40° C. and sample temperature at ambient conditions (˜25° C.). All mobile phase reagents were filtered with a 0.45 μm filter membrane prior to use. HPLC grade acetonitrile was from EMD Millipore. […] Mobile phase flow rate was set to 1.0 mL/min with a run time of 15 minutes. The diode array detector was operated at 487 nm with a bandwidth of 4 nm. Injection volume was set to 10 μL.
Standard stock solution of doxorubicin was prepared in a 0.9% saline, or methanol, or water solution (1 mg/mL). Calibration standards were prepared by diluting the stock solution in anhydrous methanol to bracket the target concentration for analysis. For this study, the doxorubicin solution was diluted with anhydrous methanol or IPA to the final concentration 50 μg/mL, 100 μg/mL and 200 μg/mL; respectively. Samples of liposomal suspension were also diluted with anhydrous methanol or IPA by a factor of 8 or 10 times prior to analysis.
Determination of doxorubicin in liposomal suspension. Followed doxorubicin loading liposomal suspension was subjected to 5× TFF to majorly remove free (not encapsulated) doxorubicin. To determine total doxorubicin concentration at TO (within one week of MFD) TFF washed liposomes were diluted with methanol or IPA and subjected to HPLC analysis. Doxorubicin content, percent of recovery (doxorubicin content in liposomal suspension relative to doxorubicin free base concentration used for remote loading), and encapsulation efficiency (%) are presented in the Table 9. Encapsulation efficiency (%) represents the difference between doxorubicin recovery (%) and free doxorubicin (%).

[2] = counter ion; cited from earlier work
nucleus = settings: within 8 h after administration; cited from earlier work
Daudi cells = assay: In vitro cell-based cytotoxicity assay (Alamar Blue), Daudi cells; settings: Homo sapiens, 1 hr exposure, 48 hrs culture
Protocol: (§1) Daudi cells (ATCC, CCL-213). Cells were plated in 96 well plates at the density 100K cells per well. Doxorubicin hydrochloride, Doxil®, or doxorubicin oxalate liposomes were appropriately diluted in Growth medium (RPMI-1640, 10% FBS) and added to the cells. After 1 hr of incubation at 37° C. plates were centrifuged, supernatant was removed via aspiration, 100 μL of fresh media were added into each well, and cells were cultured for 48 hrs.
(§2) On the day, 3 to assess cell viability, Alamar Blue solution was prepared in Growth medium (RPMI-1640, 10% FBS) at 1:250 dilution and added directly into cell media. After 6 hrs of incubation at 37° C. the resulting fluorescence was read on a plate reader. The fluorescence of cells that have not received any drug treatment was defined as maximum viability. The fluorescence of cell free media was defined as complete cell death. Data analysis was performed by using Prism nonlinear regression software (GraphPad Software) for the curve-fitting and determination of IC50 values.

Hela cells = assay: cells; type: cell-based; settings: Homo sapiens, read-out: Hela, CC50, μM
Protocol: as §1, with “Hela” for “Daudi”, “(HeLa (ATCC CCL-2).” for “(ATCC, CCL-213).”, “25K” for “100K”, “(DMEM, 5% FBS, 1% antibiotic, 1% HEPES)” for “(RPMI-1640, 10% FBS)”
as §2

[3] = tested on: Human B lymphoma cell line Ramos (RA 1); assay: In vivo study: B lymphoma model in SCID Beige mice; settings: 3 mg doxorubicin/kg iv x3
Protocol: On the same day prior to administration into animals cell were counted, centrifuged at 12000 rpm, washed with sterile PBS, centrifuged again at 1200 rpm, resuspended in sterile PBS to the final cell count 35×10-per mL. Suspension of cells was administered into animals intravenously via single bolus injection to deliver 5×10^6 cells per mouse.
Four weeks old immune deficient SCID Beige, (Line—CB17.Cg-Prkdc^scidLyst^bg-J/Crl) mice were maintained on Chow diet. At the age of 8 weeks mice were subdivided in 3 groups. On the day 1, 5×10^6 B lymphoma cells were intravenously injected into each mouse (FIG. 2). […] On the day 2 and 3 all treatments were repeated (FIG. 2). Animals were monitored daily and weighed twice a week.
Treatment articles were administered intravenously in 120 μL via single bolus injection to deliver 60 μg of doxorubicin per mouse or ˜3 mg/kg dose.

| doxorubicin loading into liposomes with this counter ion (in words) ([1]; remote loading at 70° C.) | Compound | also measured |
| --- | --- | --- |
| no doxorubicin loading was observed | O=C(O)c1ccccn1 [Picolinate] | – |
| no doxorubicin loading was observed | O=C(O)/C=C\C(=O)O [Maleate] | – |
| no doxorubicin loading was observed | O=C(O)CCC(=O)O [Succinate] | – |
| no doxorubicin loading was observed | CC(=O)N[C@@H](CS)C(=O)O [N-Acetyl- L-cysteine] | pKa 1 [2]: 3.82; doxorubicin loading into liposomes with this counter ion (in words) ([1]; cold loading at room temperature): no doxorubicin loading was observed |

Further lines, the molecule ahead of its results:

| Compound | doxorubicin loading into liposomes with this counter ion (in words) ([1]; remote loading at 70° C.) | also measured |
| --- | --- | --- |
| O=CO [Formate] | no doxorubicin loading was observed | – |
| N[C@@H](CS)C(=O)O [Cysteinate] | no doxorubicin loading was observed | pKa 1 [2]: 1.96; pKa 2 [2]: 8.18 |
| O=C(O)CC(=O)O [Malonate] | no doxorubicin loading was observed | – |
| COc1cccc2c1C(=O)c1c(O)c3c(c(O)c1C2=O)C[C@@](O)(C(=O)CO)C[C@@H]3O[C@H]1C[C@H](N)[C@H](O)[C@H](C)O1.Cl [Doxorubicin Hydrochloride, Doxorubicin hydrochloride] | – | drug translocated to / entered the nucleus (nucleus): 26%; CC50 (Daudi cells): 0.4 µM; CC50 (Hela cells): 7 µM; survival compared to Placebo (in words) [3]: survivors demonstrated longest MST; death rate ([3]; day 13): 50% |
| O=C(O)/C=C/C(=O)O [Fumarate] | no doxorubicin loading was observed | – |
| O=C1O[C@H]([C@@H](O)CO)C(O)=C1O [Ascorbate] | no doxorubicin loading was observed | – |
| CC(=O)O [Acetate] | no doxorubicin loading was observed | – |

— patent publication US11033520B2, “Liposomal anticancer compositions” (IriSys, LLC, priority 2016, dated 2021)
